Measured values published in patent US6855730B2, “3-methylidenyl-2-indolinone modulators of protein kinase” (Sugen, Inc., priority 1998, dated 2005).

Biological target: T1, chimeric receptor containing the EGFR extracellular domain and intracellular HER2 kinase domain (Homo sapiens, UniProt P04626)
T1 construct: fused on or other part: EGFR ectodomain + HER2 intracellular part, ATP-site indolinones: HER2's kinase
Experiment: EGF Receptor-HER2 chimeric receptor assay in whole cells (ELISA)
Type: cell-based
Settings: read-out: HER-2 kinase IC50
Summary of the method: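 NIH3T3 cells overexpressing EGFR-extracellular/HER2-kinase chimera, seeded in 0.5% serum for ~40 h, were pretreated with compound (1% final DMSO) 2 h at 37 °C, then stimulated with 100 nM EGF for 5 min. Lysates captured on anti-EGFR plates; phosphotyrosine detected by anti-Ptyr/HRP ELISA at 410 nm as percent inhibition.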

T1 sequence (P04626 720-1255 limits assumed, change not shown): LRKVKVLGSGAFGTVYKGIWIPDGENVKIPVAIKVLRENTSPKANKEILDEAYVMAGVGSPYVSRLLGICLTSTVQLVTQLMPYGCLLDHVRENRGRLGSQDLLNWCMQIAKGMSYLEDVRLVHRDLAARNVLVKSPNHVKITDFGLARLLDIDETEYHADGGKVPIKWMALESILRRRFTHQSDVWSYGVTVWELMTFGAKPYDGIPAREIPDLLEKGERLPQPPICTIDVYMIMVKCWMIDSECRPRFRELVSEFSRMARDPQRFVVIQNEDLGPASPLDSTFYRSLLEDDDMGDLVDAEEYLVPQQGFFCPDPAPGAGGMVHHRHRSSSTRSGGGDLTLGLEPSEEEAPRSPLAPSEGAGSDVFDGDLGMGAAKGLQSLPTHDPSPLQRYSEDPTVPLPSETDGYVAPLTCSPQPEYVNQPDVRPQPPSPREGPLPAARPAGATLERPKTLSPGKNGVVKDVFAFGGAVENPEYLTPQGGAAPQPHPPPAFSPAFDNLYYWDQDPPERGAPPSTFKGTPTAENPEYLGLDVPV

| SMILES | IC50 [µM] |
| --- | --- |
| COc1cc(C)c(C=C2C(=O)Nc3ccccc32)cc1C(C)C [Example 8, 3-(5-Isopropyl-4-methoxy-2-methylbenzylidene)-1,3-dihydroindol-2-one] | 8.36 |
| COc1c(C(C)C)cc(/C=C2/C(=O)Nc3cc(F)ccc32)cc1C(C)C [Example 22, 3-(3,5-Diisopropyl-4-methoxybenzylidene)-6-fluoro-1,3-dihydroindol-2-one] | 12.4 |
| CCc1ccc2c(c1)/C(=C\c1cc(C(C)C)c(OC)c(C(C)C)c1)C(=O)N2 [Example 28, 3-(3,5-Diisopropyl-4-methoxbenzylidene)-5-ethyl-1,3-dihydroindol-2-one] | 16.9 |
| COc1c(C(C)C)cc(/C=C2/C(=O)Nc3ccc(C(C)=O)cc32)cc1C(C)C [Example 5, 5-Acetyl-3-(3,5-diisopropyl-4-methoxybenzylidene)-1,3dihydroindol-2-one] | 6.5 |
| COc1ccc2c(c1)/C(=C\c1cc(C(C)C)c(OC)c(C(C)C)c1)C(=O)N2 [Example 17, 3-(3,5-Diisopropyl-4-methoxybenzylidene)-5-methoxy-1,3-dihydroindol-2-one] | 7.8 |
| COc1cc(C)c(/C=C2/C(=O)Nc3ccc(Br)cc32)cc1C(C)C [Example 36, 5-Bromo-3-(5-isopropyl-4-methoxy-2-methyl-benzylidene)-1,3-dihydroindol-2-one] | 20.7 |
| COc1ccc(/C=C2/C(=O)Nc3ccc(CCN4CCOCC4)cc32)cc1-c1ccsc1 [Example 26, 3-(4-Methoxy-3-thiophen-3-ylbenzylidene)-5-(2-morpholin-4-yl-ethyl)-1,3-dihydroindol-2-one] | 15.3 |
| COc1ccc(/C=C2/C(=O)Nc3cc(NC(C)=O)ccc32)cc1-c1ccsc1 [Example 18, N-[3-(4-Methoxy-3-thiophene-3-ylbenzylidene)-2-oxo-2,3-dihydro-1H-indol-6-yl]-acetamide] | 8.4 |
| CC1(C)CCc2cc(/C=C3/C(=O)Nc4ccc(Cl)cc43)ccc2O1 [Example 15, 5-Chloro-3-(2,2-dimethyl-chroman-6-ylmethylene)-1,3-dihydroindol-2-one] | 19 |
| COc1ccc(C=C2C(=O)Nc3ccccc32)cc1-c1cccc(NC(C)=O)c1 [Example 29, N-[2′-Methoxy-5′-(2-oxo-1,2-dihydroindol-3-ylidenemethyl)-biphenyl-3-yl]-acetamide] | 17.1 |
| COc1c(C(C)C)cc(/C=C2/C(=O)Nc3cc(N)ccc32)cc1C(C)C [Example 32, 6-Amino-3-(3,5-diisoprotyl-4-methoxy-benzylidene)-1,3-dihydroindol-2-one] | 90.2 |
| CC(C)c1cc(/C=C2/C(=O)Nc3ccc(Cl)cc32)cc(C(C)C)c1OCCN1CCOCC1 [Example 24, 5-chloro-3-[3,5-diisopropyl-4-(2-morpholin-4-ylethoxy)-benzylidene]-1,3-dihydroindol-2-one] | 13.6 |
| COc1cc(C)c(/C=C2/C(=O)Nc3ccc(F)cc32)cc1C(C)C [Example 30, 5-Fluoro-3-(5-isopropyl-4-methoxy-2-methyl-benzylidene)-1,3-dihydroindol-2-one] | 28 |
| COc1ccc(/C=C2\C(=O)Nc3cccc(C)c32)cc1C(C)C [Example 38, 3-(3-Isopropyl-4-methoxybenzylidene)-4-methyl-1,3-dihydroindol-2-one] | 32.3 |
| COC(=O)c1ccc2c(c1)/C(=C\c1cc(C(C)C)c(OC)c(C(C)C)c1)C(=O)N2 [Example 6, 3-(3,5-Diisopropyl-4-methoxybenzylidene)-2-oxo-2,3-dihydro-1H-indole-5-carboxylic acid methyl ester] | 15.3 |
| COc1c(C(C)C)cc(/C=C2/C(=O)Nc3cc(NC(C)=O)ccc32)cc1C(C)C [Example 3, N-[3-(3,5-Diisopropyl-4-methoxybenzylidene)-2-oxo-2,3-dihydro-1H-indol-6-yl]-acetamide] | 6.4 |

Now from value to compound:

| IC50 [µM] | SMILES |
| --- | --- |
| > 100 | Cc1cccc2c1/C(=C/c1ccc3c(c1)CCO3)C(=O)N2 [Example 69, 3-(2,3-Dihydrobenzofuran-5-ylmethylene)-4-methyl-1,3-dihydroindol-2-one] |
| > 100 | O=C1Nc2ccccc2/C1=C\c1ccc2c(c1)CCO2 [Example 66, 3-(2,3-Dihydrobenzofuran-5-ylmethylene)-1,3-dihydroindol-2-one] |
| > 100 | COc1ccc(/C=C2/C(=O)Nc3ccc(Cl)cc32)cc1-c1ccccc1 [Example 67, 5-Chloro-3-(6-methoxybiphenyl-3-ylmethylene)-1,3-dihydroindol-2-one] |
| 47.5 | O=C1Nc2ccc(F)cc2/C1=C\c1ccc2c(c1)CCO2 [Example 42, 3-(2,3-Dihydrobenzofuran-5-ylmethylene)-5-fluoro-1,3-dihydroindol-2-one] |
| 65 | COc1ccc(/C=C2\C(=O)Nc3cccc(C)c32)cc1C1CCCC1 [Example 48, 3-(3-Cyclopentyl-4-methoxybenzylidene)-4-methyl-1,3-dihydroindol-2-one] |
| 60.6 | COc1ccc(/C=C2/C(=O)Nc3ncccc32)cc1C1CCCC1 [Example 47, 3-(3-Cyclopentyl-4-methoxybenzylidene)-1,3-dihydropyrrolo[2,3-b]pyridin-2-one] |
| 39.8 | Cc1cccc2c1/C(=C/c1ccc3c(c1)CCC(C)(C)O3)C(=O)N2 [Example 41, 3-(2,2-Dimethylchroman-6-ylmethylene)-4-methyl-1,3-dihydroindol-2-one] |
| 89.3 | CC(=O)Nc1ccc2c(c1)NC(=O)/C2=C/c1ccc(OCCN2CCOCC2)c(C(C)(C)C)c1 [Example 55, N-{3-[3-tert-Butyl-4-(2-morpholin-4-ylethoxy)-benzylidene]-2-oxo-2,3-dihydro-1H-indol-6-yl}-acetamide] |
| > 100 | COc1ccc(/C=C2\C(=O)Nc3cccc(C)c32)cc1C1CCCCC1 [Example 68, 3-(3-Cyclohexyl-4-methoxybenzylidene)-4-methyl-1,3-dihydroindol-2-one] |
| > 100 | Cc1cc(CCC(=O)O)c(/C=C2\C(=O)Nc3ccc(Cl)cc32)[nH]1 [Example 111, 3-[2-(5-Chloro-2-oxo-1,2-dihydroindol-3-ylidenemethyl)-5-methyl-1H-pyrrol-3-yl]propionic acid] |
| > 100 | COc1ccccc1-c1ccc2c(c1)NC(=O)/C2=C\c1[nH]c(C)cc1CCC(=O)O [Example 109, 3-{2-[6-(2-Methoxyphenyl)-2-oxo-1,2-dihydroindol-3-ylidenemethyl]-5-methyl-1H-pyrrol-3-yl}-propionic acid] |
| > 100 | COc1ccc(/C=C2/C(=O)Nc3ncccc32)cc1-c1ccccc1 [Example 71, 3-(6-Methoxybiphenyl-3-ylmethylene)-1,3-dihydropyrrolo[2,3-b]pyridin-2-one] |
| 67.6 | CC(=O)Nc1ccc2c(c1)NC(=O)/C2=C/c1ccc(OCCN2CCOCC2)c(-c2ccsc2)c1 [Example 50, N-{3-[4-(2-Morpholin-4-ylethoxy)-3-thiophen-3-ylbenzylidene]-2-oxo-2,3-dihydro-1H-indol-6-yl}-acetamide] |
| > 100 | COc1ccc(/C=C2/C(=O)Nc3ccc(Cl)cc32)cc1-c1cccnc1 [Example 60] |
| > 100 | COc1c(C(C)C)cc(/C=C2/C(=O)Nc3ncccc32)cc1C(C)C [Example 74, 3-(3,5-Diisopropyl-4-methoxybenzylidene)-1,3-dihydropyrrolo[2,3-b]pyridin-2-one] |
